Test system: tyrosine kinase in the measurement sample (cell membrane fraction of breast cancer cell lines)
Experiment: Tyrosine kinase activity of cell membrane fraction in presence/absence of tyrosine kinase inhibitor (Poly-Glu4-Tyr substrate, ELISA chemiluminescence)
Format: biochemical
Conditions: 25 μM kinase inhibitor, 25 μM ATP, activity with inhibitor / without
Protocol: 500 μl of NP40(−) solubilized buffer (20 mM HEPES (pH 7.4)), 10 (w/v) % glycerol, 0.2% protease inhibitor cocktail (#P8340: Sigma-Aldrich (product composition: 104 mM AEBSF, 80 μM aprotinin, 4 mM bestatin, 1.4 mM E-64, 2 mM leupeptin, 1.5 mM Pepstatin A), 50 mM NaF and 200 μM Na3VO4) was added to the cell pellet, followed by stirring for 2 seconds three times using a vortex mixer. After being allowed to stand for 10 minutes, the soluble fraction was removed by centrifugal operation (at 20000×g, for 30 minutes, at 4° C.). The obtained pellet was resuspended in 500 μl of NP40(−) solubilized buffer, the soluble fraction was again removed by centrifugal operation (at 20000×g, for 20 minutes, at 4° C.), and the pellet was washed. The pellet was resuspended by adding 500 μl of NP40(+) solubilized buffer (a buffer prepared by adding NP-40 to the NP40(−) solubilized buffer at a final concentration of 1% to the pellet, pipetting 50 times, and vortexing for 2 seconds three times. After being allowed to stand for 10 minutes, a cell membrane fraction containing a membrane protein was obtained by centrifugal operation (at 20000×g, for 40 minutes, at 4° C.). The protein concentration of the obtained cell membrane fraction was measured by DC protein assay (#500-0116 JA: Bio-Rad). Then, the cell membrane fraction was used as a measurement sample for the following experiments. The measurement sample was frozen with liquid nitrogen and stored at −80° C. before use for the following kinase activity measurement.
NeutrAvidin Coated Plates (HBC) (96-well white plate; #15509: Pierce) were washed three times with 300 μl of TBS-T (20 mM Tris-HCl (pH 7.4)), 150 mM NaCl, 0.1% tween). Then, 100 μl of Poly-Glu4-Tyr biotin conjugate (#12440: Upstate) which had been diluted to 1 μg/ml with TBS (20 mM Tris-HCl (pH 7.4), 150 mM NaCl) was added to the wells. After shaking at 37° C. and 400 rpm for 90 minutes, the wells were washed with 300 μl of TBS-T three times and a measuring plate was obtained.
The measurement sample was diluted with a kinase buffer (20 mM HEPES (pH 7.4), 25 mM MgCl2, 1.25 mM MnCl2, 250 μM Na3VO4, 12.5 (w/v) % glycerol) so as to adjust the protein concentration to 6.25 μg/ml. The diluted measurement sample was transferred to wells of a 96 well V bottom plate. As the tyrosine kinase inhibitors, Src kinase inhibitor I known as an inhibitor of Src (CAS No. 179248-59-0: Calbiochem), PP1 (CAS No. 172889-26-8: Biomol), and Src kinase inhibitor II (Calbiochem) represented by Structural formula (I) below were used. A DMSO solution (inhibitor concentration: 5 mM) containing these inhibitors (Inhibitors 1 to 10 shown in Table 6) was added to the wells at a ratio of 1:160 based on the diluted measurement sample, followed by mixing thereof. As the control, DMSO was added to the diluted measurement sample at the same ratio as the solution of the inhibitor.
After addition of each of the tyrosine kinase inhibitors, a mixed solution of the measurement sample and the inhibitor was allowed to stand at room temperature for 10 minutes. 40 μl of the mixed solution was transferred to wells of the measuring plate and 10 μl of an ATP solution (20 mM HEPES (pH 7.4), […]) as the phosphate group donor was added to the wells. The composition of the solution in the wells is as follows: protein concentration: 5 μg/ml, 20 mM HEPES (pH 7.4), 20 mM MgCl2, 1 mM MnCl2, 200 μM Na3VO4, 10 (w/v) % glycerol, and 25 μM ATP, 25 μM kinase inhibitor.
After shaking the measuring plate at 37° C. and 400 rpm for 60 minutes, the solution was removed from the measuring plate, and the wells were washed with 300 μl of TBS-T three times. 100 μl of Starting Block T20 (TBS) (#37543: Pierce) as a blocking solution was added to the wells, followed by blocking at 37° C. and 400 rpm for 10 minutes. The blocking solution was removed from the measuring plate. […]

[1] = AU565 membrane fraction (dasatinib-insensitive cell line)
[2] = BT-20 membrane fraction (dasatinib-sensitive cell line)
[3] = BT-474 membrane fraction (dasatinib-insensitive cell line)
[4] = BT-549 membrane fraction (dasatinib-insensitive cell line)
[5] = HCC1419 membrane fraction (dasatinib-insensitive cell line)
[6] = HCC1428 membrane fraction (dasatinib-insensitive cell line)
[7] = HCC1806 membrane fraction (dasatinib-sensitive cell line)
[8] = HCC1954 membrane fraction (dasatinib-sensitive cell line)
[9] = HS578T membrane fraction (dasatinib-sensitive cell line)
[10] = MCF7 membrane fraction (dasatinib-insensitive cell line)
[11] = MDA-MB-157 membrane fraction (dasatinib-sensitive cell line)
[12] = MDA-MB-231 membrane fraction (dasatinib-sensitive cell line)
[13] = MDA-MB-435S membrane fraction (dasatinib-insensitive cell line)
[14] = MDA-MB-436 membrane fraction (dasatinib-insensitive cell line)
[15] = MDA-MB-453 membrane fraction (dasatinib-insensitive cell line)
[16] = MDA-MB-468 membrane fraction (dasatinib-insensitive cell line)
[17] = SK-BR-3 membrane fraction (dasatinib-insensitive cell line)
[18] = ZR-75-1 membrane fraction (dasatinib-insensitive cell line)
[19] = ZR-75-30 membrane fraction (dasatinib-insensitive cell line)

SMILES | RA (relative activity value) [1] | RA (relative activity value) [2] | RA (relative activity value) [3] | RA (relative activity value) [4] | RA (relative activity value) [5] | RA (relative activity value) [6] | RA (relative activity value) [7] | RA (relative activity value) [8] | RA (relative activity value) [9] | RA (relative activity value) [10] | RA (relative activity value) [11] | RA (relative activity value) [12] | RA (relative activity value) [13] | RA (relative activity value) [14] | RA (relative activity value) [15] | RA (relative activity value) [16] | RA (relative activity value) [17] | RA (relative activity value) [18] | RA (relative activity value) [19]
Cc1ccc(-c2nn(C(C)(C)C)c3ncnc(N)c23)cc1 [PP1, 1-(1,1-dimethylethyl)-1-(4-methylphenyl)-1H-pyrazolo-[3,4-d]-pyrimidine-4-amine] | 0.302 | 0.309 | 0.496 | 0.193 | 0.446 | 0.451 | 0.160 | 0.292 | 0.194 | 0.295 | 0.173 | 0.134 | 0.313 | 0.403 | 0.448 | 0.322 | 0.260 | 0.314 | 0.507
COc1cc2ncnc(Nc3ccc(Oc4ccccc4)cc3)c2cc1OC [Src kinase inhibitor I, 4-(4′-phenoxylanilino)-6,7-dimethoxyquinazoline] | 0.632 | 0.434 | 0.624 | 0.394 | 0.637 | 0.563 | 0.329 | 0.535 | 0.418 | 0.508 | 0.397 | 0.364 | 0.551 | 0.551 | 0.837 | 0.190 | 0.567 | 0.442 | 0.627
COc1ccc2c(c1)cc(C)c1nnc(SCC(=O)Nc3cccc(C(C)=O)c3)n12 [Src kinase inhibitor II] | 0.731 | 0.668 | 0.620 | 0.528 | 0.615 | 0.720 | 0.476 | 0.644 | 0.709 | 0.307 | 0.715 | 0.426 | 0.500 | 0.514 | 0.549 | 0.523 | 0.414 | 0.697 | 0.596

Source: patent US20130143236A1, “METHOD FOR DETERMINING SENSITIVITY OF TUMOR CELLS TO DASATINIB AND COMPUTER PROGRAM” (priority 2011, published 2013)
